Tested on: post-menopausal women with MDD
Test: Post hoc analysis of the Example 1 study: post-menopausal women with MDD
Type: in vivo, human
From the text: Hormonal changes during early menopause can often affect the metabolism of antidepressants (ADTs). Postmenopausal/older women may not respond well to ADTs. This example presents a post hoc analysis of the study described in Example 1 in post-menopausal women with MDD.
The study described in Example 1 enrolled patients with MDD, aged 18-75 years, with HAMD-17≥20 and a MADRS total score ≥28 to 1 of 2 cohorts: 30-mg Cohort and 50-mg Cohort. HAMD-17 responders (≥50% reduction from baseline) at Day 15 continued in study and were assessed for repeat-treatment eligibility. Post-menopausal women aged ≥45 were identified based on follicle stimulating hormone >40 at baseline (central lab data) and if medical history coded terms contained ‘menopause’.

[1] = Day 15, post-menopausal patients

C[C@@]1(O)CC[C@H]2[C@H](CC[C@@H]3[C@@H]2CC[C@]2(C)[C@@H](C(=O)Cn4cc(C#N)cn4)CC[C@@H]32)C1 [Compound (1), 1-(2-((3R,5R,8R,9R,10S,13S,14S,17S)-3-hydroxy-3,13-dimethylhexadecahydro-1H-cyclopenta[a]phenanthren-17-yl)-2-oxoethyl)-1H-pyrazole-4-carbonitrile]
Patients not requiring additional courses during their time in the study (106/152 post-menopausal patients who responded to and completed treatment cycle 1): 42.5%
HAMD-17 remission rate [1]: 39.6%
HAMD-17 response rate [1]: 75.7%
Mean (SD) CFB in HAMD-17 [1]: −16.0 (7.00)
TEAE diarrhea (post-menopausal patients): 7.9%
TEAE dizziness (post-menopausal patients): 11.8%
TEAE dry mouth (post-menopausal patients): 7.2%
TEAE headache (post-menopausal patients): 13.2%
TEAE insomnia (post-menopausal patients): 6.6%
TEAE sedation (post-menopausal patients): 6.6%
TEAE somnolence (post-menopausal patients): 12.5%
TEAE upper respiratory infection (post-menopausal patients): 7.9%
TEAEs leading to discontinuation of study drug (post-menopausal patients (8/152)): 5.3%
TEAEs leading to withdrawal from the study (post-menopausal patients (9/152)): 5.9%
TEAEs leading to dose reduction (post-menopausal patients (16/152)): 10.5%
Share of patients with TEAEs that were mild or moderate (post-menopausal patients (90/102)): 88.2%
Patients with at least 1 TEAE over the study duration (post-menopausal patients (102/152)): 67.1%
Mean (range) number of total treatment courses (post-menopausal patients, cycle 1 responders): 2.2 (1-5)
Tolerability (post-menopausal women): generally well-tolerated
